Measurements published in US11541055B2, “Inhibitors of human immunodeficiency virus replication” (ViiV Healthcare UK (No. 5) LIMITED, priority 2018, dated 2023).
pEC50: −log10 of the molar value.

How the values were obtained:
[1] = tested on: recombinant NL4-3 virus (Renilla luciferase) in MT-2 cells; assay: HIV cell culture assay (antiviral activity, luciferase readout); format: cell-based; settings: Renilla, NL43
Description: HIV cell culture assay—MT-2 cells, 293T cells and the proviral DNA clone of NL4-3 virus were obtained from the NIH AIDS Research and Reference Reagent Program. MT-2 cells were propagated in RPMI 1640 media supplemented with 10% heat inactivated fetal bovine serum (FBS), […]. The 293T cells were propagated in DMEM media supplemented with 10% heat inactivated FBS, […] penicillin G and […] streptomycin. A recombinant NL40.3 proviral clone, in which a section of the nef gene was replaced with the Renilla luciferase gene, was used to make the reference virus used in these studies. The recombinant virus was prepared through transfection of the recombinant NL4-3 proviral clone into 293T cells using Transit-293 Transfection Reagent from Minis Bio LLC (Madison, Wis.). Supernatent was harvested after 2-3 days and the amount of virus present was titered in MT-2 cells using luciferase enzyme activity as a marker by measuring luciferase enzyme activity. Luciferase was quantitated using the EnduRen Live Cell Substrate from Promega (Madison, Wis.). Antiviral activities of compounds toward the recombinant virus were quantified by measuring luciferase activity in MT-2 cells infected for 4-5 days with the recombinant virus in the presence of serial dilutions of the compound.
The 50% effective concentration (EC50) was calculated by using the exponential form of the median effect equation where (Fa)=1/[1+(ED50/drug conc.)m] (Johnson V A, Byington R T. Infectivity Assay. In Techniques in HIV Research. ed. Aldovini A, Walker B D. 71-76. New York: Stockton Press. 1990). The 50% inhibitory concentration (EC50) was calculated by using the exponential form of the median effect equation where percent inhibition=1/[1+(EC50/drug concentration)m], where m is a parameter that reflects the slope of the concentration-response curve.

[2] = Compound cytotoxicity, XTT-based colorimetric assay; format: cell-based; settings: human; uninfected MT2 cells, day 4, XTT
Description: Compound cytotoxicity and the corresponding CC50 values were determined using the same protocol as described in the antiviral assay except that uninfected cells were used. Cytotoxicity was assessed on day 4 in uninfected MT2 cells by using a XTT (2,3-bis[2-Methoxy-4-nitro-5-sulfophenyl]-2H-tetrazolium-5-carboxyanilide inner salt)-based colorimetric assay (Sigma-Aldrich, St Louis, Mo.).

SMILES | pEC50 [1] | CC50 at 4 days [2]
Cn1nc(NS(C)(=O)=O)c2c(Cl)ccc(-n3c([C@H](Cc4cc(F)cc(F)c4)NC(=O)Cn4nc(C(F)F)c5c4C(F)(F)[C@@H]4C[C@H]54)nc4cc(-c5ncccc5C(F)(F)F)ccc4c3=O)c21 (atropisomer, axis not shown; (P)) [Example 30, N—((S)-1-((3P)-3-(4-chloro-1-methyl-3-(methylsulfonamido)-1H-indazol-7-yl)-4-oxo-7-(3-(trifluoromethyl)pyridin-2-yl)-3,4-dihydroquinazolin-2-yl)-2-(3,5-difluorophenyl)ethyl)-2-((3bS,4aR)-3-(difluoromethyl)-5,5-difluoro-3b,4,4a,5-tetrahydro-1H-cyclopropa[3,4]cyclopenta[1,2-c]pyrazol-1-yl)acetamide] | 9.66 | > 500 nM
CCOc1cc(-c2ccc3c(=O)n(-c4ccc(Cl)c5c(NS(C)(=O)=O)nn(C)c45)c([C@H](Cc4cc(F)cc(F)c4)NC(=O)Cn4nc(C(F)F)c5c4C(F)(F)[C@@H]4C[C@H]54)nc3c2)nc(C)n1 (atropisomer, axis not shown; (P)) [Example 69, N—((S)-1-((3P)-3-(4-chloro-1-methyl-3-(methylsulfonamido)-1H-indazol-7-yl)-7-(6-ethoxy-2-methylpyrimidin-4-yl)-4-oxo-3,4-dihydroquinazolin-2-yl)-2-(3,5-difluorophenyl)ethyl)-2-((3bS,4aR)-3-(difluoromethyl)-5,5-difluoro-3b,4,4a,5-tetrahydro-1H-cyclopropa[3,4]cyclopenta[1,2-c]pyrazol-1-yl)acetamide] | 9.37 | > 500 nM
Cn1nc(NS(C)(=O)=O)c2c(Cl)ccc(-n3c([C@H](Cc4cc(F)cc(F)c4)NC(=O)Cn4nc(C(F)F)c5c4C(F)(F)[C@@H]4C[C@H]54)nc4cc(-c5ccccc5OC(F)F)ccc4c3=O)c21 (atropisomer, axis not shown; (P)) [Example 25, N—((S)-1-((3P)-3-(4-chloro-1-methyl-3-(methylsulfonamido)-1H-indazol-7-yl)-7-(2-(difluoromethoxy)phenyl)-4-oxo-3,4-dihydroquinazolin-2-yl)-2-(3,5-difluorophenyl)ethyl)-2-((3bS,4aR)-3-(difluoromethyl)-5,5-difluoro-3b,4,4a,5-tetrahydro-1H-cyclopropa[3,4]cyclopenta[1,2-c]pyrazol-1-yl)acetamide] | 9.07 | > 500 nM
Cc1cc(C)nc(-c2ccc3c(=O)n(-c4ccc(Cl)c5c(NS(=O)(=O)C6CC6)nn(CC(F)F)c45)c([C@H](Cc4cc(F)cc(F)c4)NC(=O)Cn4nc(C(F)F)c5c4C(F)(F)[C@@H]4C[C@H]54)nc3c2)c1 (atropisomer, axis not shown; (P)) [Example 83, N—((S)-1-((3P)-3-(4-chloro-3-(cyclopropanesulfonamido)-1-(2,2-difluoroethyl)-1H-indazol-7-yl)-7-(4,6-dimethylpyridin-2-yl)-4-oxo-3,4-dihydroquinazolin-2-yl)-2-(3,5-difluorophenyl)ethyl)-2-((3bS,4aR)-3-(difluoromethyl)-5,5-difluoro-3b,4,4a,5-tetrahydro-1H-cyclopropa[3,4]cyclopenta[1,2-c]pyrazol-1-yl)acetamide] | 9.36 | > 500 nM
Cn1nc(NS(C)(=O)=O)c2c(Cl)ccc(-n3c([C@H](Cc4cc(F)cc(F)c4)NC(=O)Cn4nc(C(F)F)c5c4C(F)(F)[C@@H]4C[C@H]54)nc4cc(-c5cc(C(F)(F)F)cc(C(F)(F)F)n5)ccc4c3=O)c21 (atropisomer, axis not shown; (P)) [Example 58, N—((S)-1-(7-(4,6-bis(trifluoromethyl)pyridin-2-yl)-(3P)-3-(4-chloro-1-methyl-3-(methylsulfonamido)-1H-indazol-7-yl)-4-oxo-3,4-dihydroquinazolin-2-yl)-2-(3,5-difluorophenyl)ethyl)-2-((3bS,4aR)-3-(difluoromethyl)-5,5-difluoro-3b,4,4a,5-tetrahydro-1H-cyclopropa[3,4]cyclopenta[1,2-c]pyrazol-1-yl)acetamide] | 9.02 | > 500 nM
CCc1cc(C)nc(-c2ccc3c(=O)n(-c4ccc(Cl)c5c(NS(=O)(=O)C6CC6)nn(CC(F)F)c45)c([C@H](Cc4cc(F)cc(F)c4)NC(=O)Cn4nc(C(F)F)c5c4C(F)(F)[C@@H]4C[C@H]54)nc3c2)n1 (atropisomer, axis not shown; (P)) [Example 82, N—((S)-1-((3P)-3-(4-chloro-3-(cyclopropanesulfonamido)-1-(2,2-difluoroethyl)-1H-indazol-7-yl)-7-(4-ethyl-6-methylpyrimidin-2-yl)-4-oxo-3,4-dihydroquinazolin-2-yl)-2-(3,5-difluorophenyl)ethyl)-2-((3bS,4aR)-3-(difluoromethyl)-5,5-difluoro-3b,4,4a,5-tetrahydro-1H-cyclopropa[3,4]cyclopenta[1,2-c]pyrazol-1-yl)acetamide] | 9.60 | > 500 nM
Cc1ccc(F)c(-c2ccc3c(=O)n(-c4ccc(Cl)c5c(NS(=O)(=O)C6CC6)nn(CC(F)F)c45)c([C@H](Cc4cc(F)cc(F)c4)NC(=O)Cn4nc(C(F)F)c5c4C(F)(F)[C@@H]4C[C@H]54)nc3c2)n1 (atropisomer, axis not shown) [Example 96, N-[(1S)-1-{3-[4-chloro-3-cyclopropanesulfonamido-1-(2,2-difluoroethyl)-1H-indazol-7-yl]-7-(3-fluoro-6-methylpyridin-2-yl)-4-oxo-3,4-dihydroquinazolin-2-yl}-2-(3,5-difluorophenyl)ethyl]-2-[(2S,4R)-9-(difluoromethyl)-5,5-difluoro-7,8-diazatricyclo[4.3.0.0^2,^4]nona-1(6),8-dien-7-yl]acetamide] | 9.62 | > 500 nM
Cc1ccc(-c2ccc3c(=O)n(-c4ccc(Cl)c5c(NS(C)(=O)=O)nn(CC(F)(F)F)c45)c([C@H](Cc4cc(F)cc(F)c4)NC(=O)Cn4nc(C(F)F)c5c4C(F)(F)[C@@H]4C[C@H]54)nc3c2)nn1 (atropisomer, axis not shown) [Example 106, N-[(1S)-1-{3-[4-chloro-3-methanesulfonamido-1-(2,2,2-trifluoroethyl)-1H-indazol-7-yl]-7-(6-methylpyridazin-3-yl)-4-oxo-3,4-dihydroquinazolin-2-yl}-2-(3,5-difluorophenyl)ethyl]-2-[(2S,4R)-9-(difluoromethyl)-5,5-difluoro-7,8-diazatricyclo[4.3.0.0^2,^4]nona-1(6),8-dien-7-yl]acetamide] | 10.37 | > 500 nM
O=C(Cn1nc(C(F)F)c2c1C(F)(F)[C@@H]1C[C@H]21)N[C@@H](Cc1cc(F)cc(F)c1)c1nc2cc(-c3nccc(C(F)F)n3)ccc2c(=O)n1-c1ccc(Cl)c2c(NS(=O)(=O)C3CC3)nn(CC(F)F)c12 (atropisomer, axis not shown; (P)) [Example 86, N—((S)-1-((3P)-3-(4-chloro-3-(cyclopropanesulfonamido)-1-(2,2-difluoroethyl)-1H-indazol-7-yl)-7-(4-(difluoromethyl)pyrimidin-2-yl)-4-oxo-3,4-dihydroquinazolin-2-yl)-2-(3,5-difluorophenyl)ethyl)-2-((3bS,4aR)-3-(difluoromethyl)-5,5-difluoro-3b,4,4a,5-tetrahydro-1H-cyclopropa[3,4]cyclopenta[1,2-c]pyrazol-1-yl)acetamide] | 10.11 | > 500 nM
